Counter-ions that a name gives are not always drawn. Values belong to the compound of their own block, whether it stands above or below them.
Tests used:
Format in all cases: biochemical
C1S = biological target: T1, C1S (Homo sapiens, UniProt P09871); test: In vitro inhibition of purified enzymes, Ki determination: C1S; details: no enzyme-specific conditions printed
T1 sequence (P09871 16-688): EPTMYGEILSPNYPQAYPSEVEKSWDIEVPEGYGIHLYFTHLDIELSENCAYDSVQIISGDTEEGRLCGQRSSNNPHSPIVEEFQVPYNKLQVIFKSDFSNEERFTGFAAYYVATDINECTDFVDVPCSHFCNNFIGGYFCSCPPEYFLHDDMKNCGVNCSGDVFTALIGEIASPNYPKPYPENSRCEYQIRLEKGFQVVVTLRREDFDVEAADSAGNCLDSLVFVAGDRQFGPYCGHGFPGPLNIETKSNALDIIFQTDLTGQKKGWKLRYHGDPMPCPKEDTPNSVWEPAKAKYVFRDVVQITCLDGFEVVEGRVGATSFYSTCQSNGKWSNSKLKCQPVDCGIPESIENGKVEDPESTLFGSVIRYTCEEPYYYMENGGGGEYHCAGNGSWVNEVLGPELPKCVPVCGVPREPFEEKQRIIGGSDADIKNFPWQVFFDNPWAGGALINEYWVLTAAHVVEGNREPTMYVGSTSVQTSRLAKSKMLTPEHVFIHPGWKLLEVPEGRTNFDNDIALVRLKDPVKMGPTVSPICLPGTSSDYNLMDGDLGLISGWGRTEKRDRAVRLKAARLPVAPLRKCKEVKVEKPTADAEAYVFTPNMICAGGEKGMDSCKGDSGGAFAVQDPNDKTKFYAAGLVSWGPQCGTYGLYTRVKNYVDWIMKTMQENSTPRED
Text: (§1) Human α-thrombin, human factor Xa and human plasmin were obtained from Enzyme Research Laboratories (South Bend, Ind.). Bovine α-chymotrypsin (Sigma C4129), bovine trypsin (Sigma T8642) and human kidney cell urokinase (Sigma U5004) were obtained from Sigma. Human leukocyte elastase was obtained from Elastin Products (Pacific, Mo.). Ki Determinations: All assays are based on the ability of the test compound to inhibit the enzyme catalyzed hydrolysis of a peptide p-nitroanilide substrate. […] The final concentrations for each of the substrates is listed below. In general, substrate concentrations are lower than the experimentally determined value for Km. […]
(§2) In a typical Ki determination, into each well of a 96 well plate is pipetted 280 μL of substrate solution, 10 μL of test compound solution, and the plate allowed to thermally equilibrate at 37° C. in a Molecular Devices plate reader for >15 minutes. Reactions were initiated by the addition of a 10 μL aliquot of enzyme and the absorbance increase at 405 nm is recorded for 15 minutes. […] The ratio of the velocity (rate of change in absorbance as a function of time) for a sample containing no test compound is divided by the velocity of a sample containing test compound, and is plotted as a function of test compound concentration. The data are fit to a linear regression, and the value of the slope of the line calculated. […]

human plasmin = biological target: T2, human plasmin (Homo sapiens, UniProt P00747); test: In vitro inhibition of purified enzymes, Ki determination: plasmin; details: substrate N-p-Tosyl-Gly-Pro-Lys-p-nitroanilide 37 μM, [Plasmin]=8 nM, pH 7.5, 37° C.
T2 construct: purchased Enzyme Research Laboratories
T2 sequence (P00747 581-810 limits assumed): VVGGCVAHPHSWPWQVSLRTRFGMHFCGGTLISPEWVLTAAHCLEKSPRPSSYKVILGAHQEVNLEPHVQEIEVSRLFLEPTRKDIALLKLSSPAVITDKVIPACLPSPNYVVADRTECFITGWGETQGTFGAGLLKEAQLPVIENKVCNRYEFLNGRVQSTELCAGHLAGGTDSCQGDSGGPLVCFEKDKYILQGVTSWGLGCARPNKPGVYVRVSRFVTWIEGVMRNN
T2 sequence (P00747 97-580 partner limits assumed): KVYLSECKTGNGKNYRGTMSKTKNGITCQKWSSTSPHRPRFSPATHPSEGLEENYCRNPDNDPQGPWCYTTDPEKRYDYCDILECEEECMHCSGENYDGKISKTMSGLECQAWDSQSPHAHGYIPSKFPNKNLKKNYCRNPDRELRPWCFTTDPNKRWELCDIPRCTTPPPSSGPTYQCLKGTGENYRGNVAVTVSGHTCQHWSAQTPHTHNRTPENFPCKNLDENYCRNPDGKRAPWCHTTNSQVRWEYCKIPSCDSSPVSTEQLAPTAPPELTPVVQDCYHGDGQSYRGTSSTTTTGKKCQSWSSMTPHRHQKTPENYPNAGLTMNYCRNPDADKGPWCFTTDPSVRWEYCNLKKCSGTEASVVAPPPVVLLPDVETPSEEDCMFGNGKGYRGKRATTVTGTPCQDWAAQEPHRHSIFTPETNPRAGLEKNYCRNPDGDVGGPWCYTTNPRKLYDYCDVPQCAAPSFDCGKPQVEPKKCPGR
Text: (§3) Reagents: All buffer salts were obtained from Sigma Chemical Company (St. Louis, Mo.), and were of the highest purity available. The enzyme substrates, N-benzoyl-Phe-Val-Arg-p-nitroanilide (Sigma B7632), N-benzoyl-Ile-Glu-Gly-Arg-p-nitroanilide hydrochloride (Sigma B2291), N-p-tosyl-Gly-Pro-Lys-p-nitroanilide (Sigma T6140), N-succinyl-Ala-Ala-Pro-Phe-p-nitroanilide (Sigma S7388) and N-CBZ-Val-Gly-Arg-p-nitroanilide (Sigma C7271) were obtained from Sigma. N-Succinyl-Ala-Ala-Pro-Arg-p-nitroanilide (BACHEM L-1720) and N-succinyl-Ala-Ala-Pro-Val-p-nitroanilide (BACHEM L-1770) were obtained from BACHEM (King of Prussia, Pa).
(§4) Human α-thrombin, human factor Xa and human plasmin were obtained from Enzyme Research Laboratories (South Bend, Ind.). […] In general, substrate concentrations are lower than the experimentally determined value for Km. […]
(§5) In a typical Ki determination, into each well of a 96 well plate is pipetted 280 μL of substrate solution, 10 μL of test compound solution, and the plate allowed to thermally equilibrate at 37° C. in a Molecular Devices plate reader for >15 minutes. Reactions were initiated by the addition of a 10 μL aliquot of enzyme and the absorbance increase at 405 nm is recorded for 15 minutes. […] The data are fit to a linear regression, and the value of the slope of the line calculated. The inverse of the slope is the experimentally determined Ki value. […]

human factor Xa = biological target: T3, human factor Xa (Homo sapiens, UniProt P00742); test: In vitro inhibition of purified enzymes, Ki determination: Factor Xa; details: substrate N-benzoyl-Ile-Glu-Gly-Arg-p-nitroanilide hydrochloride 51 μM, [FXa]=10 nM, pH 7.5, 37° C.
T3 construct: purchased Enzyme Research Laboratories
T3 sequence (P00742 235-488 limits assumed): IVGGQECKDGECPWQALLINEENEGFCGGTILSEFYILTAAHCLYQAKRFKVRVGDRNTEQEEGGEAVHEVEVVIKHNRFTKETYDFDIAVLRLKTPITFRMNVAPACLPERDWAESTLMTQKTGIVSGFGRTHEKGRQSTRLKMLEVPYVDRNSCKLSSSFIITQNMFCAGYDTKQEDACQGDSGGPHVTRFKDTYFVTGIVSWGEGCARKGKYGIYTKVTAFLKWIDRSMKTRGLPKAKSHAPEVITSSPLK
T3 sequence (P00742 41-179 partner limits assumed): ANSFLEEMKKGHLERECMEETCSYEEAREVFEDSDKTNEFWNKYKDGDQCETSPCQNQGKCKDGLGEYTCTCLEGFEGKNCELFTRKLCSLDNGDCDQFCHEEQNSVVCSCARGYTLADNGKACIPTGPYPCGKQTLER
Text: as §3, §4, §5

tPA = tPA (Homo sapiens, UniProt P00750); test: In vitro inhibition of purified enzymes, Ki determination: tPA; details: no enzyme-specific conditions printed
Chain of tPA (P00750 36-562, species assumed): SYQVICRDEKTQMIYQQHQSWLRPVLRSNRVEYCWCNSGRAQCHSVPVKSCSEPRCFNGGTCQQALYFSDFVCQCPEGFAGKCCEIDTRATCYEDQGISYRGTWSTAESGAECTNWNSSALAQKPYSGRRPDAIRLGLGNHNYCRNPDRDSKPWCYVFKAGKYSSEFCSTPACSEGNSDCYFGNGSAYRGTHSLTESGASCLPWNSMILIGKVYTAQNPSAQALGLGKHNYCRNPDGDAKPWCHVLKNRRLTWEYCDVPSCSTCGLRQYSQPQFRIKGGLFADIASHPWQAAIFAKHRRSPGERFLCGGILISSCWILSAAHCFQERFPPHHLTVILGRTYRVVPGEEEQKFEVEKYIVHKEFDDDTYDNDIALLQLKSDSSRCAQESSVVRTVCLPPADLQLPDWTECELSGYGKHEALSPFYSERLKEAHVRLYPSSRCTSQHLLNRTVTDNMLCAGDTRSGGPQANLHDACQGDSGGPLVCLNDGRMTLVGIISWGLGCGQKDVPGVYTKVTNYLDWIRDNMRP
Text: as §1, §2

Bovine α-chymotrypsin = biological target: T4, Bovine α-chymotrypsin (Bos taurus, UniProt P00766); test: In vitro inhibition of purified enzymes, Ki determination: chymotrypsin; details: substrate N-succinyl-Ala-Ala-Pro-Phe-p-nitroanilide 14 μM, [Chymotrypsin]=2.7 nM, pH 7.5, 37° C.
T4 construct: purchased Sigma C4129
Text: as §3, §4, §5

- Ki (C1S): 0.94 µM
Compound: 4-[Bis(phenylsulfonyl)amino]-5-methylthiophene-2-carboxamidine [Example 283]

- Ki (human plasmin): 7.31 µM
Compound: CSc1sc(C(=N)N)cc1-c1nc(-c2ccc3c(c2)OCCO3)cs1 [Example 12, 4-[4-(3,4-Ethylenedioxyphenyl)thiazol-2-yl]-5-methylthiothiophene-2-carboxamidine hydrochloride]

- Ki (human factor Xa): 3 µM
Compound: CSc1sc(C(=N)N)cc1-c1nc(-c2sc3ccccc3c2Cl)cs1 [Example 119, 4-[4-(3-chlorobenzo[b]thiophen-2-yl)(1,3-thiazol-2-yl)]-5-methylthiothiophene-2-carboxamidine hydrochloride]

- Ki (tPA): 9.49 µM
Compound: CSc1sc(C(=N)N)cc1-c1nc(-c2ccc(Cl)cc2)cs1 [Example 1, 4-[4-(4-chlorophenyl)(1,3-thiazol-2-yl)]-5-methylthiothiophene-2-carboxamidine]

- Ki (human factor Xa): 2.73 µM
Compound: CSc1sc(C(N)=NC#N)cc1-c1nc(-c2ccccc2)cs1 [Example 94, 3-Amino-2-aza-3-[5-methylthio-4-(4-phenyl(1,3-thiazol-2-yl))(2-thienyl)]prop-2-enenitrile]

- Ki (Bovine α-chymotrypsin): 4.9 µM
Compound: CSc1sc(C(=N)N)cc1-c1nc(-c2ccc([N+](=O)[O-])cc2)cs1 [Example 11, 5-Methylthio-4-[4-(4-nitrophenyl)(1,3-thiazol-2-yl)]thiophene-2-carboxamidine hydrochloride]

From patent US6403633B2, “Heteroaryl amidines, methylamidines and guanidines, and use thereof as protease inhibitors” (3-Dimensional Pharmaceuticals, Inc., priority 1998, dated 2002)
